Measured values: ChEMBL document CHEMBL4507316 (2021)

Assays:
[1] = target: Serine/threonine-protein kinase 26 (Homo sapiens) (UniProt Q9P289); assay: MST4 ProQinase selectivity panel; settings: Compound concentration 1.0 uM
[2] = target: Serine/threonine-protein kinase pim-1 (Homo sapiens) (UniProt P11309); assay: PIM1 ProQinase selectivity panel; settings: Compound concentration 1.0 uM
[3] = target: Eukaryotic translation initiation factor 2-alpha kinase 1 (Homo sapiens) (UniProt Q9BQI3); assay: HRI ProQinase selectivity panel; settings: Compound concentration 1.0 uM
Chain of Eukaryotic translation initiation factor 2-alpha kinase 1 (Homo sapiens) (Q9BQI3 whole entry): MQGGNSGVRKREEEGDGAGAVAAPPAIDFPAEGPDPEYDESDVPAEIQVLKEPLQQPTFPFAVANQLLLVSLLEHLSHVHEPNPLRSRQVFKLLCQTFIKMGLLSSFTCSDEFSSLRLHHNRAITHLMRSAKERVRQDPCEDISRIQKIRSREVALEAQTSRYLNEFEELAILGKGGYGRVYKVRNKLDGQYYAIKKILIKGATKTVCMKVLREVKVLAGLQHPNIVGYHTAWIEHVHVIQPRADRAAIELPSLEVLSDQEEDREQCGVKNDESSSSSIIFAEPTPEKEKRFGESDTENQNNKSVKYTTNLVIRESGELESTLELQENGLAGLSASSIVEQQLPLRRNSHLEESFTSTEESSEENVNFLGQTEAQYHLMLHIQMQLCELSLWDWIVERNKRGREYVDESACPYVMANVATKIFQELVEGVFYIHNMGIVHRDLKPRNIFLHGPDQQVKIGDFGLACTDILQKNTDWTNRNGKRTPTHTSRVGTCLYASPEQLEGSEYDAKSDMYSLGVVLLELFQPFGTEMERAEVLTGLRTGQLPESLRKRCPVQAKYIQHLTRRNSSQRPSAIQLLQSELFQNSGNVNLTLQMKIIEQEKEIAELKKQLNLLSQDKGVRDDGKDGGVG

[4] = system: Hepatocyte growth factor receptor (Homo sapiens), P08581 [Y1230D]; assay: MET Y1230D ProQinase selectivity panel; settings: Compound concentration 1.0 uM
[5] = target: BDNF/NT-3 growth factors receptor (Homo sapiens) (UniProt Q16620); assay: TRK-B ProQinase selectivity panel; settings: Compound concentration 1.0 uM
Chain of BDNF/NT-3 growth factors receptor (Homo sapiens) (Q16620 32-822 limits assumed): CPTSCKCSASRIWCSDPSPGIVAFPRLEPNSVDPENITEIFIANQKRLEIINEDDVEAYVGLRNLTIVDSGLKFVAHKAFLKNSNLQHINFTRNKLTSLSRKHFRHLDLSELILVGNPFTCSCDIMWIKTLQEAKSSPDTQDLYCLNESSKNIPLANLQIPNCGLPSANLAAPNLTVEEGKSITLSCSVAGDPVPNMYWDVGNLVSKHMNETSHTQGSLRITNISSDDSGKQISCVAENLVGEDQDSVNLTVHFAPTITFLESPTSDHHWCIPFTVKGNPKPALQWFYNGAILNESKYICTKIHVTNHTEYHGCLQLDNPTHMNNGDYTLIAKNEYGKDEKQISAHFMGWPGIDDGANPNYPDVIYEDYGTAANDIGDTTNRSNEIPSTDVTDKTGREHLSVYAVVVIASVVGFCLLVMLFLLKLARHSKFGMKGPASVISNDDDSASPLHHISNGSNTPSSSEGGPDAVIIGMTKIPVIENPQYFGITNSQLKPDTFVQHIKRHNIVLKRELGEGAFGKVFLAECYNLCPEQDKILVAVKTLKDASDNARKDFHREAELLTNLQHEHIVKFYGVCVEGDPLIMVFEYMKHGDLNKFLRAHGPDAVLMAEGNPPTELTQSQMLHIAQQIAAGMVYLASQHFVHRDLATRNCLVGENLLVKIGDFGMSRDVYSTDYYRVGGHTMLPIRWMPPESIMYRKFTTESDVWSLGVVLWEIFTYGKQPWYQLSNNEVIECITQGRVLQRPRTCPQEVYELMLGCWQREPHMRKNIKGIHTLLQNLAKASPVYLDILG

[6] = target: Mitogen-activated protein kinase kinase kinase 3 (Homo sapiens) (UniProt Q99759); assay: MEKK3 ProQinase selectivity panel; settings: Compound concentration 1.0 uM
Chain of Mitogen-activated protein kinase kinase kinase 3 (Homo sapiens) (Q99759 whole entry): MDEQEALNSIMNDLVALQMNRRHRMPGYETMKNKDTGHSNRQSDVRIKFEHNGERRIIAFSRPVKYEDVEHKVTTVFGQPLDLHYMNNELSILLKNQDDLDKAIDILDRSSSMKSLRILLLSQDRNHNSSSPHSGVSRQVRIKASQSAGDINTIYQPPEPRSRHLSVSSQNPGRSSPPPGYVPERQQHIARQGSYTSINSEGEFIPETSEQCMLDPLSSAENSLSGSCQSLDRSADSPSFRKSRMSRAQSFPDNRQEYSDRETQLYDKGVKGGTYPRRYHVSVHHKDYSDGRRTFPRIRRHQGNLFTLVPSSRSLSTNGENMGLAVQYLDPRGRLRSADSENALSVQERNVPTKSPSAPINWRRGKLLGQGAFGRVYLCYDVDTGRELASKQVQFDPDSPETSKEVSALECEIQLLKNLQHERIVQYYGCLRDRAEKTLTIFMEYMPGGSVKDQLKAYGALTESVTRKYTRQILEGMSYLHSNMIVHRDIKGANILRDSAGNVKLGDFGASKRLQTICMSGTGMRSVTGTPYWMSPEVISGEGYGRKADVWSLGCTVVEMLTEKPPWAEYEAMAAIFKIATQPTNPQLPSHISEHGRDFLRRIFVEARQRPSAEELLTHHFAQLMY

[7] = target: Dual specificity protein kinase CLK2 (Homo sapiens) (UniProt P49760); assay: CLK2 ProQinase selectivity panel; settings: Compound concentration 1.0 uM
[8] = target: Calcium/calmodulin-dependent protein kinase type II subunit beta (Homo sapiens) (UniProt Q13554); assay: CAMK2B ProQinase selectivity panel; settings: Compound concentration 1.0 uM
Chain of Calcium/calmodulin-dependent protein kinase type II subunit beta (Homo sapiens) (Q13554 whole entry): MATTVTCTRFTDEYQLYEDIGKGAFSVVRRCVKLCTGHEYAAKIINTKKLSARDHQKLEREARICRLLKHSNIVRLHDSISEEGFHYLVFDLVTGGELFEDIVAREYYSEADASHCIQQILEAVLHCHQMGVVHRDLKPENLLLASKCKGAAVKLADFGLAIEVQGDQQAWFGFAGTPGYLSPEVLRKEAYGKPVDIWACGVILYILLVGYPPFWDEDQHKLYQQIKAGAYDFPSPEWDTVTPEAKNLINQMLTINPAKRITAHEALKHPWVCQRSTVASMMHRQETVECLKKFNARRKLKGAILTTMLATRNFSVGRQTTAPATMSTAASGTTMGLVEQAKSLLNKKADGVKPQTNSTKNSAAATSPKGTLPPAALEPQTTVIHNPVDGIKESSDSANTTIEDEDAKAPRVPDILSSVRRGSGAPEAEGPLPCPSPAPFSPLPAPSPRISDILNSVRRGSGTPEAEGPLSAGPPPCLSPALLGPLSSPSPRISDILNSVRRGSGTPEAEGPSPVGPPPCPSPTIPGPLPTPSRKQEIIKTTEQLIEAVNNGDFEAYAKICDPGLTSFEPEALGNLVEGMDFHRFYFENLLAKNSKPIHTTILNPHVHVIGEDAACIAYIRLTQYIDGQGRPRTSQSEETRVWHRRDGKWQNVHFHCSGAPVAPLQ

[9] = system: Epidermal growth factor receptor (Homo sapiens), P00533 [L858R,T790M]; assay: EGF-R T790M/L858R ProQinase selectivity panel; settings: Compound concentration 1.0 uM
[10] = target: Casein kinase I isoform gamma-1 (Homo sapiens) (UniProt Q9HCP0); assay: CK1-gamma1 ProQinase selectivity panel; settings: Compound concentration 1.0 uM
Chain of Casein kinase I isoform gamma-1 (Homo sapiens) (Q9HCP0 whole entry, looked up, canonical isoform): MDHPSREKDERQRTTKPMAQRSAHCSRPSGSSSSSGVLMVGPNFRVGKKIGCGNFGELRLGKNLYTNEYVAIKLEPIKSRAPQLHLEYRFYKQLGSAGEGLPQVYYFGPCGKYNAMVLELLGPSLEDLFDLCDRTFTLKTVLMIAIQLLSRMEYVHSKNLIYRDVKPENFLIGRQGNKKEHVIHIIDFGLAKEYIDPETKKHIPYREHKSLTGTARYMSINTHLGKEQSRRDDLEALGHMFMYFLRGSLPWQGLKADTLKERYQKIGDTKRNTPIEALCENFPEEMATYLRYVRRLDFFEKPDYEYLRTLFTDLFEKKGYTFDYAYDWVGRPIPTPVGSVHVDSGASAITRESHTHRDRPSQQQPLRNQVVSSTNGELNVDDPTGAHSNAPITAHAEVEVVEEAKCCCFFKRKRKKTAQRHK

[11] = target: Tyrosine-protein kinase Srms (Homo sapiens) (UniProt Q9H3Y6); assay: SRMS ProQinase selectivity panel; settings: Compound concentration 1.0 uM
[12] = target: 5-hydroxytryptamine receptor 1B (Homo sapiens) (UniProt P28222); settings: Compound concentration 10.0 uM
[13] = target: Dual specificity protein kinase CLK1 (Homo sapiens) (UniProt P49759); assay: CLK1 ProQinase selectivity panel; settings: Compound concentration 1.0 uM
[14] = system: Leucine-rich repeat serine/threonine-protein kinase 2 (Homo sapiens), Q5S007 [G2019S]; assay: LRRK2 G2019S ProQinase selectivity panel; settings: Compound concentration 1.0 uM
[15] = target: Ephrin type-A receptor 3 (Homo sapiens) (UniProt P29320); assay: EPHA3 ProQinase selectivity panel; settings: Compound concentration 1.0 uM
Chain of Ephrin type-A receptor 3 (Homo sapiens) (P29320 whole entry): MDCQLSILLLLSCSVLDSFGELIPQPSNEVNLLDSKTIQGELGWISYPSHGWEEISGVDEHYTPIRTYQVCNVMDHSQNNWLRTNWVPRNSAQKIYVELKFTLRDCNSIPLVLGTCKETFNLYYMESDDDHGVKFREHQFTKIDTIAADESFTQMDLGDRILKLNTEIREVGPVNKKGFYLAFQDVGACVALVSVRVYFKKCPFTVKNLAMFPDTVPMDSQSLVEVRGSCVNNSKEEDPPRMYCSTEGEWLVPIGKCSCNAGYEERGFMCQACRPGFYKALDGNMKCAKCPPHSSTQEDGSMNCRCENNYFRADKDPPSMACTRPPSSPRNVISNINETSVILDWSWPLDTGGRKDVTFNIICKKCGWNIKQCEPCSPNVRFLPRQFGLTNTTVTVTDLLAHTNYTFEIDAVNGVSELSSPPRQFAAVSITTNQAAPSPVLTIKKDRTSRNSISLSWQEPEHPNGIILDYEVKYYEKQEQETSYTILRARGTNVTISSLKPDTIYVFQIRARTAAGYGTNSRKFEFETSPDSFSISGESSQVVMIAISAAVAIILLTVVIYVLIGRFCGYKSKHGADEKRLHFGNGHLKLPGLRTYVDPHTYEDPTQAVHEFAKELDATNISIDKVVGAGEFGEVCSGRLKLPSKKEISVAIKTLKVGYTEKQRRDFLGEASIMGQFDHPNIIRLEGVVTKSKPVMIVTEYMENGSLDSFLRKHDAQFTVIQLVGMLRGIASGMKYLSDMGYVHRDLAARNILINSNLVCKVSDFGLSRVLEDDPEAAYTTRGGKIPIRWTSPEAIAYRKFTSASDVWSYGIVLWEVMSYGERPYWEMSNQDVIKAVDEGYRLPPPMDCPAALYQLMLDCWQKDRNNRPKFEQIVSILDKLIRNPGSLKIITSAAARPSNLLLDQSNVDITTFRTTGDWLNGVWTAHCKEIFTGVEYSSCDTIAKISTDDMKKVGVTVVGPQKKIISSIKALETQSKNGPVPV

[16] = target: Serine/threonine-protein kinase 24 (Homo sapiens) (UniProt Q9Y6E0); assay: MST3 ProQinase selectivity panel; settings: Compound concentration 1.0 uM
Chain of Serine/threonine-protein kinase 24 (Homo sapiens) (Q9Y6E0 whole entry, looked up): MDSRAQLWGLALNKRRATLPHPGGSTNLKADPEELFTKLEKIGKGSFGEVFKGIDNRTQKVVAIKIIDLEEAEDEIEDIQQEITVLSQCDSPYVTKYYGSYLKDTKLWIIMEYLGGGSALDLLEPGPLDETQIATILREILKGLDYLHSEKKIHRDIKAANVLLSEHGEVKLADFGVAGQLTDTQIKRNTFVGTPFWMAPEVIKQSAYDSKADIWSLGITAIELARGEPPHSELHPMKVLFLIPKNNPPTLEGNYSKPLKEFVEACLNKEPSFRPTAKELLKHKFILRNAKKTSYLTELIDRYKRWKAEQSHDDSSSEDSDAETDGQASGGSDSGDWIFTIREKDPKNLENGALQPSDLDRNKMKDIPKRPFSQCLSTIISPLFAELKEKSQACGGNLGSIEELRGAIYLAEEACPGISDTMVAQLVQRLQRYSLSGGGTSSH

Chain of Serine/threonine-protein kinase 26 (Homo sapiens) (Q9P289 2-416 limits assumed): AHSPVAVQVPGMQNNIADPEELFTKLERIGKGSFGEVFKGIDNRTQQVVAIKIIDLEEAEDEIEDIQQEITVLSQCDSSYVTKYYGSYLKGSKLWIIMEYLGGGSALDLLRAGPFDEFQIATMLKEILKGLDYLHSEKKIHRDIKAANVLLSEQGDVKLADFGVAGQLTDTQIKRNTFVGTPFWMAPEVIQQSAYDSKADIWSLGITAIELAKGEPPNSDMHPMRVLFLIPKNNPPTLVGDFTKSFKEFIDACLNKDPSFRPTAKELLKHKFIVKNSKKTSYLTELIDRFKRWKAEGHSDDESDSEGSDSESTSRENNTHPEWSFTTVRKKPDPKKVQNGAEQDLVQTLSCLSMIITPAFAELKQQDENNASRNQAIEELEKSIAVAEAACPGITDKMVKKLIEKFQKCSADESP

% Residual activity with Skepinone-L [1]: 106%
% Residual activity with Skepinone-L [2]: 105%
% Residual activity with Skepinone-L [3]: 106%
% Residual activity with Skepinone-L [4]: 95%
% Residual activity with Skepinone-L [5]: 77%
% Residual activity with Skepinone-L [6]: 96%
% Residual activity with Skepinone-L [7]: 89%
% Residual activity with Skepinone-L [8]: 86%
% Residual activity with Skepinone-L [9]: 93%
% Residual activity with Skepinone-L [10]: 97%
% Residual activity with Skepinone-L [11]: 95%
inhibition [12]: 15.2%
% Residual activity with Skepinone-L [13]: 106%
% Residual activity with Skepinone-L [14]: 77%
% Residual activity with Skepinone-L [15]: 107%
% Residual activity with Skepinone-L [16]: 106%
Structure (SMILES): O=C1c2ccc(Nc3ccc(F)cc3F)cc2CCc2ccc(OC[C@H](O)CO)cc21 [Skepinone-L]
